Assay results reported in PubChem BioAssay (NCI).
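Step 1: Grow cells in 96-well plates. Step 2: Expose to compound for 48 hours at 5 concentrations. Step 3: Interpolate endpoints linearly; if unreached, use highest concentration. GI50: concentration for 50% inhibition of growth. TGI denotes the concentration required for complete inhibition of growth.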

Columns and labels:
Assay in all cases: growth of human tumour cells (NCI), 48 h
786-0 renal = test system: 786-0 renal
A549 NSCLC = test system: A549 NSCLC
ACHN renal = test system: ACHN renal
BT-549 breast = test system: BT-549 breast
CAKI-1 renal = test system: CAKI-1 renal
CCRF-CEM leukemia = test system: CCRF-CEM leukemia
COLO 205 colon = test system: COLO 205 colon
DU-145 prostate = test system: DU-145 prostate
EKVX NSCLC = test system: EKVX NSCLC
HCC-2998 colon = test system: HCC-2998 colon
HCT-116 colon = test system: HCT-116 colon
HCT-15 colon = test system: HCT-15 colon
HL-60(TB) leukemia = test system: HL-60(TB) leukemia
HOP-62 NSCLC = test system: HOP-62 NSCLC
HOP-92 NSCLC = test system: HOP-92 NSCLC
HS 578T breast = test system: HS 578T breast
HT29 colon = test system: HT29 colon
IGROV1 ovarian = test system: IGROV1 ovarian
K-562 leukemia = test system: K-562 leukemia
KM12 colon = test system: KM12 colon
LOX IMVI melanoma = test system: LOX IMVI melanoma
M14 melanoma = test system: M14 melanoma
MALME-3M melanoma = test system: MALME-3M melanoma
MCF7 breast = test system: MCF7 breast
MDA-MB-231 breast = test system: MDA-MB-231 breast
MDA-MB-435 = test system: MDA-MB-435
MOLT-4 leukemia = test system: MOLT-4 leukemia
NCI-H226 lung = test system: NCI-H226 lung
NCI-H23 lung = test system: NCI-H23 lung
NCI-H460 lung = test system: NCI-H460 lung
NCI-H522 lung = test system: NCI-H522 lung
NCI/ADR-RES ovarian = test system: NCI/ADR-RES ovarian
OVCAR-3 ovarian = test system: OVCAR-3 ovarian
OVCAR-4 ovarian = test system: OVCAR-4 ovarian
OVCAR-5 ovarian = test system: OVCAR-5 ovarian
OVCAR-8 ovarian = test system: OVCAR-8 ovarian
PC-3 prostate = test system: PC-3 prostate
RPMI-8226 leukemia = test system: RPMI-8226 leukemia
RXF 393 renal = test system: RXF 393 renal
SF-268 CNS = test system: SF-268 CNS
SF-295 CNS = test system: SF-295 CNS
SF-539 CNS = test system: SF-539 CNS
SK-MEL-2 melanoma = test system: SK-MEL-2 melanoma
SK-MEL-28 melanoma = test system: SK-MEL-28 melanoma
SK-MEL-5 melanoma = test system: SK-MEL-5 melanoma
SK-OV-3 ovarian = test system: SK-OV-3 ovarian
SN12C renal = test system: SN12C renal
SNB-19 CNS = test system: SNB-19 CNS
SNB-75 CNS = test system: SNB-75 CNS
SR leukemia = test system: SR leukemia
SW-620 colon = test system: SW-620 colon
T-47D breast = test system: T-47D breast
TK-10 renal = test system: TK-10 renal
U251 CNS = test system: U251 CNS
UACC-257 melanoma = test system: UACC-257 melanoma
UACC-62 melanoma = test system: UACC-62 melanoma
UO-31 renal = test system: UO-31 renal

With CC1=C2C(=O)[C@](C)(CO)C=C2C(=O)[C@](C)(O)C12CC2 as the compound, how does the GI50 (786-0 renal) read?
Its GI50 is 2.1 µM.

What about the TGI (786-0 renal) of the same compound?
The TGI was 4.92 µM.

What about the GI50 (A549 NSCLC) of the same compound?
Its GI50 is 2.91 µM.

And the TGI (A549 NSCLC)?
Its TGI is 9.46 µM.

And the GI50 (ACHN renal)?
The GI50 was 1.86 µM.

And the TGI (ACHN renal)?
Its TGI is 3.56 µM.

What about the GI50 (BT-549 breast) of the same compound?
The GI50 was 1.75 µM.

And the TGI (BT-549 breast)?
The TGI was 3.6 µM.

What about the GI50 (CAKI-1 renal) of the same compound?
Its GI50 is 1.63 µM.

And the TGI (CAKI-1 renal)?
The TGI was 3.07 µM.

And the GI50 (CCRF-CEM leukemia)?
Its GI50 is 3.08 µM.

And the TGI (CCRF-CEM leukemia)?
The TGI was 13.8 µM.

And the GI50 (COLO 205 colon)?
The GI50 was 2.47 µM.

And the TGI (COLO 205 colon)?
The TGI was 6.4 µM.

What about the GI50 (DU-145 prostate) of the same compound?
Its GI50 is 2.2 µM.

What about the TGI (DU-145 prostate) of the same compound?
Its TGI is 4.89 µM.

And the GI50 (EKVX NSCLC)?
The GI50 was 3.05 µM.

What about the TGI (EKVX NSCLC) of the same compound?
The TGI was 10.2 µM.

What about the GI50 (HCC-2998 colon) of the same compound?
Its GI50 is 1.72 µM.

And the TGI (HCC-2998 colon)?
The TGI was 3.33 µM.

And the GI50 (HCT-116 colon)?
The GI50 was 1.82 µM.

What about the TGI (HCT-116 colon) of the same compound?
The TGI was 3.84 µM.

What about the GI50 (HCT-15 colon) of the same compound?
The GI50 was 2.08 µM.

And the TGI (HCT-15 colon)?
Its TGI is 4.92 µM.

And the GI50 (HL-60(TB) leukemia)?
Its GI50 is 2.46 µM.

And the TGI (HL-60(TB) leukemia)?
Its TGI is 6.21 µM.

What about the GI50 (HOP-62 NSCLC) of the same compound?
Its GI50 is 3.2 µM.

What about the TGI (HOP-62 NSCLC) of the same compound?
The TGI was 11.6 µM.

What about the GI50 (HOP-92 NSCLC) of the same compound?
Its GI50 is 2.12 µM.

What about the TGI (HOP-92 NSCLC) of the same compound?
Its TGI is 4.45 µM.

What about the GI50 (HS 578T breast) of the same compound?
Its GI50 is 2.01 µM.

What about the TGI (HS 578T breast) of the same compound?
Its TGI is 5 µM.

What about the GI50 (HT29 colon) of the same compound?
Its GI50 is 3.25 µM.

What about the TGI (HT29 colon) of the same compound?
The TGI was 11.8 µM.

What about the GI50 (IGROV1 ovarian) of the same compound?
Its GI50 is 2.4 µM.

What about the TGI (IGROV1 ovarian) of the same compound?
Its TGI is 6.47 µM.

And the GI50 (K-562 leukemia)?
The GI50 was 3.47 µM.

What about the TGI (K-562 leukemia) of the same compound?
The TGI was greater than 100 µM.

And the GI50 (KM12 colon)?
Its GI50 is 2.23 µM.

And the TGI (KM12 colon)?
The TGI was 5 µM.

What about the GI50 (LOX IMVI melanoma) of the same compound?
Its GI50 is 1.72 µM.

And the TGI (LOX IMVI melanoma)?
Its TGI is 3.3 µM.

And the GI50 (M14 melanoma)?
Its GI50 is 1.8 µM.

And the TGI (M14 melanoma)?
Its TGI is 3.56 µM.

And the GI50 (MALME-3M melanoma)?
Its GI50 is 1.86 µM.

And the TGI (MALME-3M melanoma)?
The TGI was 3.52 µM.

And the GI50 (MCF7 breast)?
Its GI50 is 1.47 µM.

What about the TGI (MCF7 breast) of the same compound?
Its TGI is 3.16 µM.

And the GI50 (MDA-MB-231 breast)?
Its GI50 is 1.98 µM.

What about the TGI (MDA-MB-231 breast) of the same compound?
Its TGI is 3.99 µM.

And the GI50 (MDA-MB-435)?
Its GI50 is 1.84 µM.

What about the TGI (MDA-MB-435) of the same compound?
The TGI was 3.41 µM.

And the GI50 (MOLT-4 leukemia)?
Its GI50 is 3.23 µM.

What about the TGI (MOLT-4 leukemia) of the same compound?
The TGI was 13.1 µM.

And the GI50 (NCI-H226 lung)?
Its GI50 is 2.18 µM.

What about the TGI (NCI-H226 lung) of the same compound?
Its TGI is 5.71 µM.

And the GI50 (NCI-H23 lung)?
Its GI50 is 1.84 µM.

And the TGI (NCI-H23 lung)?
The TGI was 3.57 µM.

What about the GI50 (NCI-H460 lung) of the same compound?
The GI50 was 2.49 µM.

What about the TGI (NCI-H460 lung) of the same compound?
Its TGI is 7.21 µM.

And the GI50 (NCI-H522 lung)?
Its GI50 is 2.04 µM.

And the TGI (NCI-H522 lung)?
Its TGI is 4.31 µM.

What about the GI50 (NCI/ADR-RES ovarian) of the same compound?
Its GI50 is 1.89 µM.

What about the TGI (NCI/ADR-RES ovarian) of the same compound?
Its TGI is 4.02 µM.

And the GI50 (OVCAR-3 ovarian)?
The GI50 was 1.8 µM.

And the TGI (OVCAR-3 ovarian)?
The TGI was 3.26 µM.

And the GI50 (OVCAR-4 ovarian)?
The GI50 was 1.91 µM.

What about the TGI (OVCAR-4 ovarian) of the same compound?
Its TGI is 3.36 µM.

What about the GI50 (OVCAR-5 ovarian) of the same compound?
Its GI50 is 2.53 µM.

And the TGI (OVCAR-5 ovarian)?
The TGI was 6.67 µM.

And the GI50 (OVCAR-8 ovarian)?
Its GI50 is 2.62 µM.

What about the TGI (OVCAR-8 ovarian) of the same compound?
The TGI was 8.31 µM.

And the GI50 (PC-3 prostate)?
The GI50 was 2.83 µM.

And the TGI (PC-3 prostate)?
The TGI was 9.03 µM.

What about the GI50 (RPMI-8226 leukemia) of the same compound?
The GI50 was 2.28 µM.

What about the TGI (RPMI-8226 leukemia) of the same compound?
Its TGI is 5.63 µM.

What about the GI50 (RXF 393 renal) of the same compound?
Its GI50 is 1.88 µM.

What about the TGI (RXF 393 renal) of the same compound?
The TGI was 3.52 µM.

What about the GI50 (SF-268 CNS) of the same compound?
Its GI50 is 2.49 µM.

And the TGI (SF-268 CNS)?
The TGI was 7.05 µM.

And the GI50 (SF-295 CNS)?
The GI50 was 2.22 µM.

And the TGI (SF-295 CNS)?
The TGI was 5.2 µM.

And the GI50 (SF-539 CNS)?
The GI50 was 1.82 µM.

And the TGI (SF-539 CNS)?
Its TGI is 3.54 µM.

And the GI50 (SK-MEL-2 melanoma)?
The GI50 was 2.39 µM.

What about the TGI (SK-MEL-2 melanoma) of the same compound?
The TGI was 5.2 µM.

What about the GI50 (SK-MEL-28 melanoma) of the same compound?
The GI50 was 2.06 µM.

And the TGI (SK-MEL-28 melanoma)?
Its TGI is 4.19 µM.

What about the GI50 (SK-MEL-5 melanoma) of the same compound?
Its GI50 is 1.81 µM.

What about the TGI (SK-MEL-5 melanoma) of the same compound?
The TGI was 3.29 µM.

What about the GI50 (SK-OV-3 ovarian) of the same compound?
Its GI50 is 3.36 µM.

What about the TGI (SK-OV-3 ovarian) of the same compound?
Its TGI is 10.9 µM.

What about the GI50 (SN12C renal) of the same compound?
The GI50 was 2.19 µM.

What about the TGI (SN12C renal) of the same compound?
Its TGI is 5.62 µM.

And the GI50 (SNB-19 CNS)?
Its GI50 is 3.05 µM.

And the TGI (SNB-19 CNS)?
The TGI was 10.5 µM.

What about the GI50 (SNB-75 CNS) of the same compound?
The GI50 was 1.26 µM.

What about the TGI (SNB-75 CNS) of the same compound?
The TGI was 3.94 µM.

And the GI50 (SR leukemia)?
The GI50 was 2.52 µM.

What about the TGI (SR leukemia) of the same compound?
Its TGI is 17.7 µM.

What about the GI50 (SW-620 colon) of the same compound?
The GI50 was 1.86 µM.

And the TGI (SW-620 colon)?
Its TGI is 3.96 µM.

What about the GI50 (T-47D breast) of the same compound?
Its GI50 is 2.33 µM.

What about the TGI (T-47D breast) of the same compound?
Its TGI is 6.42 µM.

And the GI50 (TK-10 renal)?
The GI50 was 2.23 µM.

What about the TGI (TK-10 renal) of the same compound?
The TGI was 5.63 µM.

What about the GI50 (U251 CNS) of the same compound?
Its GI50 is 2.52 µM.

And the TGI (U251 CNS)?
Its TGI is 7.48 µM.

What about the GI50 (UACC-257 melanoma) of the same compound?
The GI50 was 2.59 µM.

And the TGI (UACC-257 melanoma)?
The TGI was 7.35 µM.

And the GI50 (UACC-62 melanoma)?
Its GI50 is 1.88 µM.

What about the TGI (UACC-62 melanoma) of the same compound?
The TGI was 3.89 µM.

What about the GI50 (UO-31 renal) of the same compound?
Its GI50 is 1.66 µM.

And the TGI (UO-31 renal)?
Its TGI is 3.17 µM.
